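Five concentrations, 48 hours, 96-well plates. TGI is the concentration that stops growth completely.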
Tests used:
Test in all cases: growth of human tumour cells (NCI), 48 h
EKVX NSCLC = system: EKVX NSCLC
HCT-116 colon = system: HCT-116 colon
UACC-257 melanoma = system: UACC-257 melanoma
MDA-N = system: MDA-N
OVCAR-8 ovarian = system: OVCAR-8 ovarian
OVCAR-4 ovarian = system: OVCAR-4 ovarian
SK-MEL-2 melanoma = system: SK-MEL-2 melanoma
PC-3 prostate = system: PC-3 prostate
NCI-H522 lung = system: NCI-H522 lung
HCC-2998 colon = system: HCC-2998 colon
T-47D breast = system: T-47D breast
SW-620 colon = system: SW-620 colon
HCT-15 colon = system: HCT-15 colon
MDA-MB-231 breast = system: MDA-MB-231 breast
OVCAR-5 ovarian = system: OVCAR-5 ovarian
SR leukemia = system: SR leukemia
NCI-H23 lung = system: NCI-H23 lung
SF-268 CNS = system: SF-268 CNS
HOP-62 NSCLC = system: HOP-62 NSCLC
HL-60(TB) leukemia = system: HL-60(TB) leukemia
OVCAR-3 ovarian = system: OVCAR-3 ovarian
RXF 393 renal = system: RXF 393 renal
MALME-3M melanoma = system: MALME-3M melanoma
HT29 colon = system: HT29 colon
NCI-H460 lung = system: NCI-H460 lung
A498 renal = system: A498 renal
COLO 205 colon = system: COLO 205 colon
HOP-92 NSCLC = system: HOP-92 NSCLC
TK-10 renal = system: TK-10 renal
IGROV1 ovarian = system: IGROV1 ovarian
K-562 leukemia = system: K-562 leukemia
SK-MEL-28 melanoma = system: SK-MEL-28 melanoma
SK-MEL-5 melanoma = system: SK-MEL-5 melanoma
SK-OV-3 ovarian = system: SK-OV-3 ovarian
CCRF-CEM leukemia = system: CCRF-CEM leukemia
SNB-19 CNS = system: SNB-19 CNS
MDA-MB-435 = system: MDA-MB-435
BT-549 breast = system: BT-549 breast
MOLT-4 leukemia = system: MOLT-4 leukemia
786-0 renal = system: 786-0 renal
UO-31 renal = system: UO-31 renal
ACHN renal = system: ACHN renal
KM12 colon = system: KM12 colon
CAKI-1 renal = system: CAKI-1 renal
A549 NSCLC = system: A549 NSCLC
DU-145 prostate = system: DU-145 prostate
SN12C renal = system: SN12C renal
RPMI-8226 leukemia = system: RPMI-8226 leukemia
MCF7 breast = system: MCF7 breast
HS 578T breast = system: HS 578T breast
M14 melanoma = system: M14 melanoma
LOX IMVI melanoma = system: LOX IMVI melanoma
U251 CNS = system: U251 CNS
UACC-62 melanoma = system: UACC-62 melanoma
NCI/ADR-RES ovarian = system: NCI/ADR-RES ovarian
SF-539 CNS = system: SF-539 CNS
SF-295 CNS = system: SF-295 CNS
NCI-H226 lung = system: NCI-H226 lung
SNB-75 CNS = system: SNB-75 CNS

Q: Which results are given for `COc1cc(C2C3=C(COC3=O)OC(C)(C)Oc3cc4c(cc32)OCO4)cc(OC)c1O` (stereo not drawn)?
A: TGI (EKVX NSCLC): > 100 µM; TGI (HCT-116 colon): > 20.8 µM; TGI (UACC-257 melanoma): > 100 µM; TGI (MDA-N): 0.423 µM; TGI (OVCAR-8 ovarian): > 100 µM; TGI (OVCAR-4 ovarian): > 100 µM; TGI (SK-MEL-2 melanoma): > 100 µM; TGI (PC-3 prostate): > 100 µM; TGI (NCI-H522 lung): 6.72 µM; TGI (HCC-2998 colon): 7.88 µM; TGI (T-47D breast): > 100 µM; TGI (SW-620 colon): > 31.3 µM; TGI (HCT-15 colon): > 100 µM; TGI (MDA-MB-231 breast): 11.5 µM; TGI (OVCAR-5 ovarian): > 100 µM; TGI (SR leukemia): > 100 µM; TGI (NCI-H23 lung): > 22.1 µM; TGI (SF-268 CNS): > 100 µM; TGI (HOP-62 NSCLC): > 100 µM; TGI (HL-60(TB) leukemia): 1.49 µM; TGI (OVCAR-3 ovarian): > 100 µM; TGI (RXF 393 renal): 0.552 µM; TGI (MALME-3M melanoma): > 100 µM; TGI (HT29 colon): > 23.3 µM; TGI (NCI-H460 lung): > 100 µM; TGI (A498 renal): 68 µM; TGI (COLO 205 colon): 6.68 µM; TGI (HOP-92 NSCLC): > 94.5 µM; TGI (TK-10 renal): > 100 µM; TGI (IGROV1 ovarian): > 100 µM; TGI (K-562 leukemia): > 20.3 µM; TGI (SK-MEL-28 melanoma): > 100 µM; TGI (SK-MEL-5 melanoma): 19.4 µM; TGI (SK-OV-3 ovarian): > 100 µM; TGI (CCRF-CEM leukemia): > 100 µM; TGI (SNB-19 CNS): > 100 µM; TGI (MDA-MB-435): 0.645 µM; TGI (BT-549 breast): > 100 µM; TGI (MOLT-4 leukemia): > 100 µM; TGI (786-0 renal): > 100 µM; TGI (UO-31 renal): > 100 µM; TGI (ACHN renal): > 100 µM; TGI (KM12 colon): > 44.5 µM; TGI (CAKI-1 renal): > 46.4 µM; TGI (A549 NSCLC): > 76.8 µM; TGI (DU-145 prostate): > 100 µM; TGI (SN12C renal): > 100 µM; TGI (RPMI-8226 leukemia): > 100 µM; TGI (MCF7 breast): > 100 µM; TGI (HS 578T breast): > 100 µM; TGI (M14 melanoma): > 100 µM; TGI (LOX IMVI melanoma): > 100 µM; TGI (U251 CNS): > 100 µM

Q: Which results are given for `Cc1cccc(N/C(=C(/C(Cl)=C(Cl)Cl)[N+](=O)[O-])n2nnc3ccccc32)c1`?
A: TGI (EKVX NSCLC): 39.6 µM; TGI (HCT-116 colon): 32.9 µM; TGI (UACC-257 melanoma): 49.3 µM; TGI (MDA-N): 64.9 µM; TGI (OVCAR-8 ovarian): 31.1 µM; TGI (UACC-62 melanoma): 37 µM; TGI (OVCAR-4 ovarian): 39.5 µM; TGI (SK-MEL-2 melanoma): 36.3 µM; TGI (PC-3 prostate): 30.1 µM; TGI (HCC-2998 colon): > 100 µM; TGI (T-47D breast): 56 µM; TGI (SW-620 colon): 29.2 µM; TGI (NCI/ADR-RES ovarian): 49.4 µM; TGI (HCT-15 colon): 42.3 µM; TGI (MDA-MB-231 breast): 27.1 µM; TGI (OVCAR-5 ovarian): 38 µM; TGI (NCI-H23 lung): 34.7 µM; TGI (SF-268 CNS): 31.1 µM; TGI (HOP-62 NSCLC): 33.3 µM; TGI (OVCAR-3 ovarian): 35.5 µM; TGI (MALME-3M melanoma): 28.1 µM; TGI (HT29 colon): 33.3 µM; TGI (NCI-H460 lung): 45.1 µM; TGI (A498 renal): 25 µM; TGI (COLO 205 colon): 32.8 µM; TGI (SF-539 CNS): 32 µM; TGI (SF-295 CNS): 32 µM; TGI (K-562 leukemia): > 100 µM; TGI (SK-MEL-28 melanoma): 28.1 µM; TGI (SK-OV-3 ovarian): 49.9 µM; TGI (CCRF-CEM leukemia): > 100 µM; TGI (SNB-19 CNS): 34.3 µM; TGI (NCI-H226 lung): 26.6 µM; TGI (MDA-MB-435): 38.8 µM; TGI (BT-549 breast): 36.5 µM; TGI (MOLT-4 leukemia): > 100 µM; TGI (786-0 renal): 35.7 µM; TGI (UO-31 renal): 31 µM; TGI (ACHN renal): 63.1 µM; TGI (KM12 colon): 29.3 µM; TGI (CAKI-1 renal): 31.4 µM; TGI (A549 NSCLC): 36 µM; TGI (SN12C renal): 32.9 µM; TGI (RPMI-8226 leukemia): > 100 µM; TGI (MCF7 breast): 50 µM; TGI (HS 578T breast): 21.8 µM; TGI (M14 melanoma): 47.5 µM; TGI (U251 CNS): 26.9 µM

Q: For `CC[C@@]1(O)C(=O)OCc2c1cc1n(c2=O)Cc2c-1nc1ccccc1c2/C=N\NC(=O)C[n+]1ccccc1`, which TGI (EKVX NSCLC) is on record?
A: > 100 µM

Q: And the TGI (HCT-116 colon)?
A: > 38.1 µM

Q: What about the TGI (UACC-257 melanoma) of the same compound?
A: > 84.5 µM

Q: What about the TGI (MDA-N) of the same compound?
A: > 100 µM

Q: And the TGI (OVCAR-8 ovarian)?
A: > 68.7 µM

Q: And the TGI (UACC-62 melanoma)?
A: 1.22 µM

Q: What about the TGI (OVCAR-4 ovarian) of the same compound?
A: > 100 µM

Q: And the TGI (SK-MEL-2 melanoma)?
A: > 89.6 µM

Q: What about the TGI (PC-3 prostate) of the same compound?
A: > 100 µM

Q: And the TGI (NCI-H522 lung)?
A: > 43.5 µM

Q: What about the TGI (HCC-2998 colon) of the same compound?
A: > 100 µM

Q: And the TGI (T-47D breast)?
A: 2.9 µM

Q: What about the TGI (SW-620 colon) of the same compound?
A: > 100 µM

Q: What about the TGI (NCI/ADR-RES ovarian) of the same compound?
A: > 100 µM

Q: What about the TGI (HCT-15 colon) of the same compound?
A: > 100 µM

Q: What about the TGI (MDA-MB-231 breast) of the same compound?
A: > 100 µM

Q: And the TGI (OVCAR-5 ovarian)?
A: > 65.7 µM

Q: And the TGI (NCI-H23 lung)?
A: 7.71 µM

Q: And the TGI (SF-268 CNS)?
A: > 69.5 µM

Q: And the TGI (HL-60(TB) leukemia)?
A: > 34.4 µM

Q: What about the TGI (OVCAR-3 ovarian) of the same compound?
A: > 79.4 µM

Q: What about the TGI (RXF 393 renal) of the same compound?
A: 2.79 µM

Q: And the TGI (MALME-3M melanoma)?
A: > 100 µM

Q: And the TGI (HT29 colon)?
A: > 66.3 µM

Q: What about the TGI (NCI-H460 lung) of the same compound?
A: 9.75 µM

Q: And the TGI (A498 renal)?
A: 21.4 µM

Q: What about the TGI (SNB-75 CNS) of the same compound?
A: > 28.2 µM

Q: And the TGI (COLO 205 colon)?
A: > 100 µM

Q: What about the TGI (SF-539 CNS) of the same compound?
A: 0.971 µM

Q: And the TGI (HOP-92 NSCLC)?
A: > 31.6 µM

Q: And the TGI (TK-10 renal)?
A: > 100 µM

Q: What about the TGI (SF-295 CNS) of the same compound?
A: > 21.3 µM

Q: What about the TGI (IGROV1 ovarian) of the same compound?
A: > 100 µM

Q: What about the TGI (K-562 leukemia) of the same compound?
A: > 100 µM

Q: And the TGI (SK-MEL-28 melanoma)?
A: > 100 µM

Q: What about the TGI (SK-MEL-5 melanoma) of the same compound?
A: 2.09 µM

Q: What about the TGI (SK-OV-3 ovarian) of the same compound?
A: > 100 µM

Q: And the TGI (CCRF-CEM leukemia)?
A: > 100 µM

Q: What about the TGI (SNB-19 CNS) of the same compound?
A: 19.1 µM

Q: What about the TGI (NCI-H226 lung) of the same compound?
A: > 29.7 µM

Q: And the TGI (MDA-MB-435)?
A: > 100 µM

Q: What about the TGI (BT-549 breast) of the same compound?
A: > 100 µM

Q: What about the TGI (MOLT-4 leukemia) of the same compound?
A: 11.7 µM

Q: What about the TGI (786-0 renal) of the same compound?
A: > 27.8 µM

Q: What about the TGI (UO-31 renal) of the same compound?
A: 2.56 µM

Q: And the TGI (ACHN renal)?
A: 1.27 µM

Q: What about the TGI (KM12 colon) of the same compound?
A: > 100 µM

Q: What about the TGI (CAKI-1 renal) of the same compound?
A: 20 µM

Q: And the TGI (A549 NSCLC)?
A: > 100 µM

Q: And the TGI (DU-145 prostate)?
A: 14.3 µM

Q: What about the TGI (SN12C renal) of the same compound?
A: > 69 µM

Q: And the TGI (RPMI-8226 leukemia)?
A: > 100 µM

Q: And the TGI (MCF7 breast)?
A: 16.2 µM

Q: What about the TGI (HS 578T breast) of the same compound?
A: > 100 µM

Q: And the TGI (M14 melanoma)?
A: 6.37 µM

Q: What about the TGI (LOX IMVI melanoma) of the same compound?
A: 6 µM

Q: What about the TGI (U251 CNS) of the same compound?
A: 32 µM

Reference: PubChem BioAssay (NCI)
